The first data set has as its system AT-1 rat prostate tumor cells. Nature of the data set: Post-thaw viability of AT-1 cell suspensions in various media on the directional solidification stage (Hoechst/Propidium Iodide membrane integrity assay). The data set is classed as cell-based. The conditions noted are these: end temperature −30° C., 5° C./minute. The method, then: (§1) In freezing experiments with cell suspensions, a half eutectic concentration solution was mixed with cell culture media (Dulbecco's Modified Eagle's Medium/F-12) in 1 (salt solution): 2 (culture media) volume ratio.
AT-1 rat prostate tumor cells were cultured in vitro under standard tissue culture conditions, as are known. AT-1 cells were suspended in each eutectic changing solution, and kept at about 4° C.
Cultured AT-1 cells were separated from a culture flask by immersion in 0.05% (by volume) trypsin and 0.53 mM EDTA, and then suspended in 5% (by volume) fetal bovine serum (FBS)-supplemented medium such that the final trypsin concentration was <0.005% (by volume). After the separation, the cells were pelleted by centrifugation and the excess medium was removed. […]
Post-thaw viabilities of AT-1 cell suspensions in various media were assessed for varying end temperature of the freezing and thawing protocol on the directional solidification stage. […]
The concentrations of these solutions were determined so that the use of these solutions would not result in excessive killing of the AT-1 cells due to high osmotic pressure. […]
Viability of the AT-1 cell suspensions was measured by a membrane integrity assay using Hoechst and Propidium Iodide. […] After incubation, viability was assessed under a fluorescent microscope by scoring more than 200 cells for each sample.
Turning to `[Cl-].[K+]` [KCl, potassium chloride], the “less viability than AT-1 cell suspension in 1×NaCl” value is given as 70%.

System in the next data set: not listed separately
Nature of the data set: Onset temperature of eutectic solidification of AT-1 cell suspension media by DSC. The conditions noted are these: AT-1 cell suspension medium. The data set is classed as physicochemical. The method, then:
Controlled cooling and thawing rate were achieved by the DSC and directional solidification stage. Unless otherwise mentioned, cooling and thawing rates were 5° C./min.
The onset temperature of the eutectic solidification was measured using the DSC, as described herein. Generally speaking, the viability of the AT-1 cells in the suspension solutions decreased with end temperature regardless of the media used. Note that the temperatures of noticeable viability drop to coincide with the eutectic crystallization temperatures of each suspension media. When the viability of the AT-1 cell suspension in the 1×NaCl (the onset of eutectic crystallization at about […]) is compared with that of KCl infused AT-1 cell suspension (the onset of eutectic crystallization at about −21° C.), there is 70% less viability at −30° C. in the KCl infused AT-1 cell suspension.
With `[Cl-].[K+]` [KCl, potassium chloride], the “onset of eutectic crystallization” value was “about −21 °C”.

In the next data set the test system is AT-1 tumor tissues. Description: Histology of AT-1 tumor tissues 2 days after freezing experiments on the directional solidification stage. Further details: species or system rat. The note with it: frozen to −20° C., 400×. The method, then: FIGS. 7A-7F show images of histology preparations of AT-1 tumor tissues 2 days after the freezing experiments on the directional solidification stage. Control tissues are very similar in all cases (FIGS. 7A, 7C, and 7E). Some cytoplasmic retraction is seen after salt infusion in FIGS. 7C and 7E over the control sample (FIG. 7A), but overall viability appears high. After freezing the samples to −20° C., a reduction in the number and quality of nuclei in all frozen samples is noted (FIGS. 7B, 7D, and 7F). Nuclear changes include darkening, reduction in size of chromatin, pykonsis and in some cases loss of nuclear material. In addition, cell membranes in frozen salt infused samples are indistinct and difficult to identify. All of these changes appear accentuated in the KNO3 and KCl infused samples.
Consider `[Cl-].[K+]` [KCl, potassium chloride], for which the “histological changes after freezing (nuclei, cell membranes)” value is given as “accentuated”.

As for `O=[N+]([O-])[O-].[K+]` [KNO3, potassium nitrate], the “histological changes after freezing (nuclei, cell membranes)” value is on record as “accentuated”.

Another data set has as its system AT-1 rat prostate tumor cells. Description: Post-thaw viability with half eutectic concentration KNO3 solution (Example 4). It counts as cell-based. The note with it: frozen to about −20° C. The method, then:
as §1
AT-1 rat prostate tumor cells were cultured in vitro, as described above. Cultured AT-1 cells were separated from a culture flask by immersion in 0.05% (by volume) trypsin and 0.53 mM EDTA, and then suspended in 5% (by volume) fetal bovine serum (FBS)-supplemented medium such that the final trypsin concentration was <0.005% (by volume). After the separation, the cells were pelleted by centrifugation and the excess medium was removed. The cell pellet was re-suspended into various aqueous solutions (about 1.0 ml) before experiments and nominal cell concentration was about 2×10^6 cells/ml. The suspensions were stored in 1.5 ml microcentrifuge tube on ice (about 4° C.).
Liver tissues were also isolated from the rats.
The directional solidification stage, as described above, was used in the experiments. Controlled cooling and thawing rate were achieved by the DSC and directional solidification stage. Unless otherwise mentioned, cooling and thawing rates were 50° C./min.
For the directional solidification stage, fast thawing rates (about 200° C./min) were employed. […]
Post-thaw viabilities of AT-1 cell suspensions in various media were assessed. […]
`O=[N+]([O-])[O-].[K+]` [KNO3, potassium nitrate] had a post-thaw viability of 15.2±7.1%.

The data set is the same for the next values; noted with them: no freeze/thaw procedure.
Regarding `O=[N+]([O-])[O-].[K+]` [KNO3, potassium nitrate], the “viability of control samples” value is 92.1%.

System in a further data set: not given
Test: not given
The note with it: Table 1, salts used to induce eutectic crystallization; cited from earlier work.
As to `[Cl-].[K+]` [KCl, potassium chloride], the “Eutectic Concentration” value is reported as 19.7 % wt./wt.

Regarding `[Cl-].[Na+]` [NaCl, sodium chloride], the “Eutectic Concentration” value was 23.6 % wt./wt.

Take `O=[N+]([O-])[O-].[K+]` [KNO3, potassium nitrate]: the “Eutectic Concentration” value is given as 10.9 % wt./wt.

The same data set, now with this note: solute in water; cited from earlier work.
Consider `O=S(=O)([O-])[O-].[Mg+2]` [MgSO4], for which the “% Eutectic Concentration (wt./wt.)” value is given as 19.0% (wt./wt.) and the “Eutectic Temp.” value was −3.9 °C.

Consider `[Cl-].[Cl-].[Mg+2]` [MgCl2], for which the “% Eutectic Concentration (wt./wt.)” value is recorded as 21.6 % (wt./wt.) and the “Eutectic Temp.” value is −33.6 °C.

Regarding `OC[C@H]1O[C@@](CO)(O[C@H]2O[C@H](CO)[C@@H](O)[C@H](O)[C@H]2O)[C@@H](O)[C@@H]1O` [Sucrose], the “% Eutectic Concentration (wt./wt.)” value is recorded as 62.5 % (wt./wt.) and the “Eutectic Temp.” value is −13.5 °C.

As to `[Ca+2].[Cl-].[Cl-]` [CaCl2], the “% Eutectic Concentration (wt./wt.)” value is reported as 29.8 % (wt./wt.) and the “Eutectic Temp.” value is −55 °C.

On to `[Cl-].[K+]` [KCl, potassium chloride], for which the “% Eutectic Concentration (wt./wt.)” value was 19.7% (wt./wt.) and the “Eutectic Temp.” value was −11.1 °C.

`[Cl-].[Na+]` [NaCl, sodium chloride]: the “% Eutectic Concentration (wt./wt.)” value is on record as 23.6% (wt./wt.) and the “Eutectic Temp.” value is −21.8 °C.

For `Cl.N` [NH4Cl], the “% Eutectic Concentration (wt./wt.)” value is on record as 18.6 % (wt./wt.) and the “Eutectic Temp.” value is −15.8 °C.

As for `O=[N+]([O-])[O-].[K+]` [KNO3, potassium nitrate], the “% Eutectic Concentration (wt./wt.)” value is 10.9% (wt./wt.) and the “Eutectic Temp.” value is −2.9 °C.

Regarding `[Br-].[K+]` [KBr], the “Eutectic Temp.” value is −13.0 °C.

Still in this data set, the particulars now being: thermodynamic equilibrium; cited from earlier work.
`[Cl-].[Na+]` [NaCl, sodium chloride]: the “eutectic point of the solution” value is “approximately −21.1 °C”.

Values taken from patent US20060122588A1, “Cryosurgery compositions and methods” (Regents of the University of Minnesota, priority 2002, published 2006).
